Marks after values point to notes of the source that are not given here.
Columns and labels:
[1] = test system: whrithing by phenylquinone; experiment: Analgesic activity, writhing by phenylquinone (method of Siegmund); format: in vivo; settings: mice
carrageenin edema = experiment: Antiinflammatory activity, carrageenin edema test (method of Winter); format: in vivo; settings: rat; for % INHIBITION / EDEMA VOLUME Final value: 50 mg/kg oral 30 minutes before carrageenin, measured 3 hours after induction; for EDEMA VOLUME Basal value: 50 mg/kg oral
Protocol: The antiinflammatory activity of MR 549 has been assessed by the carrageenin edema test in the rat according to the method of Winter et al. (Proc. Soc. Exp. Biol. Med., 1962, III, 544).
The product under exam and indomethaoin at equiponderant doses have been administered by the oral route 30 minutes before of the subplantar carragee ning injection; pletismographic measures of the edemas have been performed 3 hours after they had been induced.

[2] = Acute toxicity after single administration, rat; settings: in vivo
Description: (§1) The toxicity after single administrations of MR 549 has been studied in mice and rats by the oral and intraperitoneal routes.
(§2) The LD50 values have been calculated according to the method of Litchfield and Wilooxon (J. Pharm. Exp. Therap., 1949, 96, 99).

gastric mucosa [3] = settings: rat, in vivo, po
Protocol: (§3) Male rats of S-D strain, weighing 180-200 g and fasting for 48 hours with free access to water, have been used. The product under exam have been administered by intraperitoneal routes : twice (after 24 and 31 hours from the beginning of the fasting period) at the single dose of 100 mg/kg; or three times by oral route (9.24 and 31 hours after the beginning of the fasting period) at the single dose of 150 mg/kg.

motor activity = experiment: Spontaneous motor activity; format: in vivo; settings: Swiss mouse, 50 mg/kg i.p.
Protocol: The effect of MR 549 on the motor activity has been studied in the Swiss mouse, by placing two groups of animals in a box connected with a recorder detec ting spontaneous motility. On the basis of movemen- ts/minute recorded, MR 549 at the dose of 50 mg/kg i.p. has been administered to one group and the ac tivity has been recorded during the 2 hours following treatment; the second group, treated with the solvent alone, has been used as control group.

[4] = Acute toxicity after single administration, mouse; format: in vivo; settings: in vivo, mouse, single administration
Description: as §1, §2

mouse = experiment: Acute toxicity after single administration, mouse; format: in vivo; settings: mice and rats, oral and intraperitoneal routes
Description: as §1, §2

gastric mucosa [5] = experiment: Gastric tolerability (method of Pisanti and Volterra); settings: fasting rats, 12 animals
Protocol: as §3

[6] = 50 mg/kg os, 30 minutes before phenylquinone injection

CC(=O)Oc1ccccc1C(=O)O [ACETYL-SALICYLIC ACID, acetylsalicylic acid, reference compound]
% INHIBITION IN COMPARISON WITH CONTROLS ([1]; 100 mg/kg os): 79.6%
N° CONTORSIONS X̄ ± e.s. ([1]; 100 mg/kg os): 3.9 ± 1.93
N° WHRITHING ANIMALS/TOTAL N& ([1]; 100 mg/kg os): 12/20

COc1ccc2c(c1)c(CC(=O)O)c(C)n2C(=O)c1ccc(Cl)cc1 [INDO-METHACINE, indomethacin, reference compound]
% INHIBITION (carrageenin edema): 53.2%
EDEMA VOLUME Final value (carrageenin edema): 29.6
EDEMA VOLUME Basal value (carrageenin edema): 22.5

Cc1cccnc1NC(=O)C1(c2ccccc2)CCCC1 [MR 549, 2-[(1-phenyl)cyclopentyl-carbonyl]-amino-3-methylpyridine]
LD50 ([2]; ip): 600 mg/kg
LD50 ([2]; po, os): 1100 mg/kg
gastrolesive action (verbal summary) (gastric mucosa [3]): clearly lower than phenylbutazone
N° recorded movements/min. (motor activity; 15'): 42 movements/min.
N° recorded movements/min. (motor activity; 30'): 52 movements/min.
N° recorded movements/min. (motor activity; 60'): 39 movements/min.
N° recorded movements/min. (motor activity; 90'): 52 movements/min.
N° recorded movements/min. (motor activity; Time: 0): 45 movements/min.
LD50 ([4]; ip): 300 mg/kg
LD50 ([4]; po, os): 550 mg/kg
acute toxicity (verbal summary) (mouse): very low acute toxicity
% INHIBITION IN COMPARISON WITH CONTROLS [1, 6]: 63.9%
N° CONTORSIONS X̄ ± e.s. [1, 6]: 6.9 ± 2.24
N° WHRITHING ANIMALS/TOTAL N& [1, 6]: 14/20
% INHIBITION (carrageenin edema): 38.1%
EDEMA VOLUME Final value (carrageenin edema): 31.8
EDEMA VOLUME Basal value (carrageenin edema): 22.6

CCCCC1C(=O)N(c2ccccc2)N(c2ccccc2)C1=O [Phenylbu-tazone, phenylbutazone]
% ANIMALS WITH ULCERS (gastric mucosa [5]; 100 mg X 2 i.p.): 83.30%
N° ANIMALS WITH ULCERS (gastric mucosa [5]; 100 mg X 2 i.p.): 10*
animals died during treatment (gastric mucosa [5]; 100 mg X 2 i.p.): * an animal died during treatment
% ANIMALS WITH ULCERS (gastric mucosa [5]; 150 mg X 3 os): 91.67%
N° ANIMALS WITH ULCERS (gastric mucosa [5]; 150 mg X 3 os): 11**
animals died during treatment (gastric mucosa [5]; 150 mg X 3 os): ** two animals died during treatment.

Source: EP0081756A1, “New compounds with antiinflammatory and antitussive activity, process for their preparation and relative pharmaceutical compositions” (MEDEA RESEARCH S.r.l., priority 1981, dated 1983)
